Reference: patent US20210130420A1, “RECOMBINANT BINDING PROTEINS TARGETING HER2 AND SERUM ALBUMIN, AND THEIR USES” (Molecular Partners AG, priority 2016, published 2021)

Assays:
BT474 cells = assay: BT474 cell proliferation, BrdU-labeling; format: cell-based, human; conditions: for IC50: Homo sapiens, BT-474, compound alone or titrated on top of 2 nM Protein #21-His, read-out: cell proliferation inhibition constant IC50, BT474
Experimental: Protein #21-His and Protein #23-His, were expressed and purified as described in Example 1. Effects of the recombinant binding proteins on BT474 cell proliferation were determined by measuring DNA synthesis using BrdU-labeling (BrdU, Cell Proliferation ELISA, Roche). Briefly, 10000 BT474 cells were seeded per well in a 96 well plate in 100 ul complete medium and incubated for 24 hours. Recombinant binding proteins or controls were added for an additional 72 hours. BrdU for cell labeling was added for the last 24 hours. Labeled (proliferating) cells were detected according to the manufactures protocol. The data were analyzed using the GraphPad prism software, plotting log [c] on the x-axis against OD450-602 nm on the y-axis. Data were fitted using a non-linear regression fit (log(antagonist) vs. response—Variable slope (four parameters)) deriving IC50 values.
(§1) Protein #21 and Protein #21-His were expressed and purified as described in Example 1. Standard BrdU cell proliferation assays were performed, well-known to the person skilled in the art. Briefly, effects on cell proliferation of Protein #21-His, other compounds, or Protein #21-His in combination with other compounds, were determined by measuring DNA synthesis using BrdU-labeling (BrdU, Cell Proliferation ELISA, Roche). Briefly, 10000 cells were seeded per well in a 96 well plate in 100 μl complete medium and incubated for 24 hours. Protein #21-His and/or compounds were added for an additional 72 hours. BrdU for cell labeling was added for the last 24 hours. Labeled (proliferating) cells were detected according to the manufactures protocol. The data were analyzed using the Graph Pad prism software (log [c] vs. OD450-602 nm plot). Data were fitted using a non-linear regression fit (log(antagonist) vs. response—variable slope (four parameters)).

MDA-MB175 cells = assay: MDA-MB175 cell proliferation, BrdU-labeling; format: cell-based; conditions: for IC50: compound alone or titrated on top of 4 nM Protein #21-His, read-out: cell proliferation inhibition constant IC50, MDA-MB175
Experimental: as §1

[1] = Storage stability in PBS analysed by size-exclusion chromatography; format: physicochemical; conditions: 10 mg/ml in PBS, 1 month at −80° C.
Experimental: A storage stability improvement is also observed, when testing the storage stability of Protein #21 and Protein #22 (recombinant binding proteins consisting of the amino acid sequences corresponding to SEQ ID NOs: 21 and 22, respectively). Protein #21 and Protein #22 are prepared as described in Example 1, samples are concentrated to 10 mg/ml in PBS and stored for 1 month at −80° C. in or at 40° C. in glass vials, followed by analysis on standard size-exclusion chromatography.

[2] = Pharmacokinetic analysis in mouse; format: in vivo
Experimental: The measurements shown in this example are the result of a half-life engineering effort as described in Example 11. Protein #21-His and Protein #23-His were expressed and purified as described in Example 1. The pharmacokinetic properties of the His-tagged proteins were assessed in mouse as described elsewhere (Zahnd, C., Kawe, M., Stumpp, M. T., de Pasquale, C., Tamaskovic, R., Nagy-Davidescu, G., Dreier, B., Schibli, R., Binz, H. K., Waibel, R., Plückthun, A., Cancer Res. 70, 1595-1605, 2010). […] Having SEQ ID NO: 16 present in the recombinant binding protein thus appears to be more favorable than having SEQ ID NO: 18 present.
Polypeptide linkers that link protein domains are well-known to the person skilled in the art. Gly-Ser-rich linkers are well-known from single-chain Fv antibody fragments, where they have proven to be most appropriate to link the two Fv polypeptide chains. […] Protein #26-His and Protein #27-His, were expressed and purified as described in Example 1. Pharmacokinetic analyses in mouse were performed as described in Example 8.
(§2) For the studies in this example Protein #21-His, Protein #24-His, Protein #28-His, Protein #29-His, and Protein #30-His were prepared according to Example 1. Protein #28-His was additionally PEGylated using a 40 kDa PEG moiety (NOF Sunbright GL2-400MA) by maleimid coupling of the PEG-moiety onto the free C-terminal cysteine of Protein #28-His, followed by purification to homogeneity using standard purification methods, procedures well known to the person skilled in the art. Pharmacokinetic analyses in mouse or cynomolgus monkey were performed as described in Examples 8 and 9.

[3] = Pharmacokinetic analysis in cynomolgus monkey; format: in vivo; conditions: 1 mg/kg, intravenous infusion
Experimental: The measurements shown in this example are the result of a half-life engineering effort as described in Example 11. Protein #21-His, Protein #23-His, and Protein #24-His were expressed and purified as described in Example 1. The pharmacokinetic properties of the proteins were assessed in cynomolgus monkey. Proteins were administered via intravenous infusion for 30 min at a target dose level of between 1 mg/kg to cynomolgus monkeys. Blood samples were collected pre-dose and again at selected time points, for example 5 min, 10 min, 0.5 hours, 1 hour, 2 hours, 4 hours, 8 hours, 12 hours, 24 hours, 48 hours, 72 hours, 96 hours, 120 hours, 144 hours, 168 hours, 192 hours, 216 hours, and 240 hours post-end of infusion (i.e. post-injection). The blood samples were allowed to stand at room temperature and were centrifuged to generate serum, followed by storage at −80° C. pending analyses. Pharmacokinetic parameters were determined using procedures well known to the person skilled in the art. Serum concentrations of proteins were determined by sandwich ELISA using a rabbit monoclonal anti-designed ankyrin repeat domain antibody as capture reagent and murine monoclonal anti-designed ankyrin repeat domain antibody as detection reagent, and using a standard curve. Pharmacokinetic parameters were determined using standard software such as Phoenix WinNonLin (Certara, Princeton, USA) or Graph Pad Prism (GraphPad Software, La Jolla, USA) and standard analyses such as non-compartmental analyses. […] Target mediated clearance is well-known to the person skilled in the art and is known from e.g. antibodies targeting HER2.
Similarly, Protein #21-His was expressed and purified as described in Example 1. The pharmacokinetic properties of the proteins were assessed in cynomolgus monkey as described above at 1 mg/kg, 5 mg/kg and 10 mg/kg.
Similar results are observed when testing Protein #21 (expressed and purified as described in Example 1). The pharmacokinetic properties of the proteins are assessed in cynomolgus monkey as described above at 1 mg/kg, 10 mg/kg and 100 mg/kg. Pharmacokinetic parameters are evaluated as described above.
as §2

## C=C1C[C@@H]2CC[C@@]34C[C@H]5O[C@H]6[C@@H](O3)[C@H]3O[C@H](CC[C@@H]3O[C@H]6[C@H]5O4)CC(=O)C[C@@H]3[C@@H](OC)[C@@H](C[C@H](O)CN)O[C@H]3C[C@H]3O[C@@H](CC[C@@H]1O2)C[C@@H](C)C3=C [Eribulin]
BT474 cells; single agent or on top of suboptimal Protein #21-His (2 nM) or Protein #21 (1 nM)
  inhibition of BT474 cell proliferation, in words: not active
MDA-MB175 cells
  IC50: 104 nM
MDA-MB175 cells; single agent or on top of suboptimal Protein #21-His (4 nM) or Protein #21 (10 nM)
  inhibition of MDA-MB175 cell proliferation, in words: very low potency

## CO[C@H]1C[C@@H]2CC[C@@H](C)[C@@](O)(O2)C(=O)C(=O)N2CCCC[C@H]2C(=O)O[C@H]([C@H](C)C[C@@H]2CC[C@@H](OCCO)[C@H](OC)C2)CC(=O)[C@H](C)/C=C(\C)[C@@H](O)[C@@H](OC)C(=O)[C@H](C)C[C@H](C)/C=C/C=C/C=C/1C [Everolimus]
MDA-MB175 cells
  IC50: 263000 nM

## CS(=O)(=O)N1CCN(Cc2cc3nc(-c4cccc5[nH]ncc45)nc(N4CCOCC4)c3s2)CC1 [GDC-0941]
BT474 cells
  IC50: 176 nM
MDA-MB175 cells
  IC50: 203 nM

## CS(=O)(=O)CCNCc1ccc(-c2ccc3ncnc(Nc4ccc(OCc5cccc(F)c5)c(Cl)c4)c3c2)o1 [Lapatinib]
BT474 cells
  IC50: 765 nM
MDA-MB175 cells
  IC50: 2810 nM

B1: Protein #22: SEQ ID NO: 22; corresponding recombinant binding protein with serum albumin binding domains of SEQ ID NO: 13 (protein)
chain: GSDLGKKLLEAARAGQDDEVRELLKAGADVNAKDYFSHTPLHLAARNGHLKIVEVLLKAGADVNAKDFAGKTPLHLAANDGHLEIVEVLLKAGADVNAQDIFGKTPADIAADAGHEDIAEVLQKAAGSPTPTPTTPTPTPTTPTPTPTGSDLGIKLLFAAAKGQDDEVRELLKAGADVNAKDFQGVTPLHIAAQSGHLEIVEVLLKAGADVNAKDVTGDTPLHLAAQHGHLEIVEVLLKAGADVNAQDERGWTPADLAADWGHEDIAEVLQKAAGSPTPTPTTPTPTPTTPTPTPTGSDLGKKLLEAARAGQDDEVRELLKAGADVNAKDEYGLTPLYLATAHGHLEIVEVLLKAGADVNAVDAIGFTPLHLAAFIGHLEIAEVLLKAGADVNAQDKFGKTPADIAAGAGNEDIAEVLQKAAGSPTPTPTTPTPTPTTPTPTPTGSDLGKKLLEAARAGQDDEVRELLKAGADVNAKDYFSHTPLHLAARNGHLKIVEVLLKAGADVNAKDFAGKTPLHLAANDGHLEIVEVLLKAGADVNAQDIFGKTPADIAADAGHEDIAEVLQKAA
modifications: Protein comprising four designed ankyrin repeat domains
[1]
  elution profiles upon storage at −80° C.: equivalent elution profiles

B2: Protein #23-His: SEQ ID NO: 23 with a His-tag (SEQ ID NO: 1) fused to its N terminus (protein)
chain: MRGSHHHHHHGSDLGKKLLEAARAGQDDEVRELLKAGADVNAKDYFSHTPLHLAARNGHLKIVEVLLKAGADVNAKDFAGKTPLHLAANEGHLEIVEVLLKAGADVNAQDIFGKTPADIAADAGHEDIAEVLQKAAGSPTPTPTTPTPTPTTPTPTPTGSDLGVKLLWAAARGQDDEVRELLKAGADVNAKDFQGITPLHIAATNGHLEIVEVLLKAGADVNAKDITGETPLHHAADSGHLEIVEVLLKAGADVNAQDKAGVTPADLAAAWGHEDIAEVLQKAAGSPTPTPTTPTPTPTTPTPTPTGSDLGKKLLEAARAGQDDEVRELLKAGADVNAKDEYGLTPLYLATAHGHLEIVEVLLKAGADVNAVDAIGFTPLHLAAFIGHLEIAEVLLKAGADVNAQDKFGKTPADIAAGAGNEDIAEVLQKAAGSPTPTPTTPTPTPTTPTPTPTGSDLGKKLLEAARAGQDDEVRELLKAGADVNAKDYFSHTPLHLAARNGHLKIVEVLLKAGADVNAKDFAGKTPLHLAANEGHLEIVEVLLKAGADVNAQDIFGKTPADIAADAGHEDIAEVLQKAA
modifications: His-tag; Protein comprising four designed ankyrin repeat domains
[2]
  % ID remaining after 48 hours: 6.5 % ID
  terminal half-life: 24.7 h
BT474 cells; BT474 proliferation
  IC50 higher than that of Protein #21-His: 60%
[3]
  terminal half-life: 35 h

B3: Protein #24-His: SEQ ID NO: 24 with a His-tag (SEQ ID NO: 1) fused to its N terminus (protein)
chain: MRGSHHHHHHGSDLGKKLLEAARAGQDDEVRELLKAGADVNAKDYFSHTPLHLAARNGHLKIVEVLLKAGADVNAKDFAGKTPLHLAANEGHLEIVEVLLKAGADVNAQDIFGKTPADIAADAGHEDIAEVLQKAAGSPTPTPTTPTPTPTTPTPTPTGSDLGKKLLEAARAGQDDEVRELLKAGADVNAKDYFSHTPLHLAARNGHLKIVEVLLKAGADVNAKDFAGKTPLHLAANEGHLEIVEVLLKAGADVNAQDIFGKTPADIAADAGHEDIAEVLQKAAGSPTPTPTTPTPTPTTPTPTPTGSDLGIKLLFAAAKGQDDEVRELLKAGADVNAKDFQGVTPLHIAAQSGHLEIVEVLLKAGADVNAKDVTGDTPLHLAAQHGHLEIVEVLLKAGADVNAQDERGWTPADLAADWGHEDIAEVLQKAAGSPTPTPTTPTPTPTTPTPTPTGSDLGKKLLEAARAGQDDEVRELLKAGADVNAKDEYGLTPLYLATAHGHLEIVEVLLKAGADVNAVDAIGFTPLHLAAFIGHLEIAEVLLKAGADVNAQDKFGKTPADIAAGAGNEDIAEVLQKAA
modifications: His-tag; Protein comprising four designed ankyrin repeat domains
[3]
  terminal half-life: 45 h
